Assay results as given in US20050132448A1, “Assay for beta cell toxic macrolides” (priority 2001, published 2005).

Experiments:
Balb/c mice [1] = test: Intra-islet insulin by indirect immunofluorescence on pancreas sections; type: in vivo
Protocol: FIG. 2 is a graphical representation of vacuolar ATPase inhibition causing increased islet insulin content of secretory granules in islet β cells. Infra-islet insulin was detected in paraffin embedded sections by indirect immunofluorescence using an anti-pig insulin antibody. Digitised images collected on an epifluorescent microscope were analysed for staining density using MCID image analysis software to provide a semi-quantitative measure of the amount of bound anti-insulin antibody. At least 9 islets were measured for each of 5 control mice and 6 bafilomycin A1-treated mice, and individual values for each islet from all mice in each group were combined for analysis. A measurement was made in each islet, and the background measured in exocrine tissue adjacent to the same islet was subtracted. Units are arbitrary fluorescence units and the data are expressed as the mean and standard deviation.
The pancreas, liver, kidney and brain were dissected from anaesthetised mice and immediately fixed in formalin. […] Endogenous peroxidase activity was inactivated using 0.5% hydrogen peroxide in methanol prior to the antibody incubations and bound HRP conjugated antibody was detected using Sigma FAST-DAB peroxidase tablets. FITC was detected using an Olympus epifluorescence microsocope and images were captured and analysed using a digital camera and MCID software. […]

Balb/c mice [2] = test: Plasma immunoreactive insulin (radioimmunoassay); type: in vivo; conditions: 7 days after treatment
Protocol: Male Balb/c mice were provided by the Monash University Central Animal House and Breeding Facility. The Monash University Department of Biochemistry Animal Ethics Committee approved all animal experimentation. Bafilomycin A1 (Sigma) was dissolved in 70% ethanol then diluted 1 in 10 with sterile phosphate buffered saline (PBS) to give a working stock of 4.8 μg/ml. Groups of between 3 and 9 mice as indicated were administered 12 μg per kilogram (body weight) bafilomycin A1 by intraperitoneal injection, which should achieve a final concentration in the blood of 275 nM bafilomycin A1 assuming a blood volume of 70 ml per kg for mice. […] Control mice received the ethanol/PBS carrier solution that lacked the inhibitor.
Groups of 9 mice were treated with bafilomycin A1 or carrier solution then fasted, anaesthetised with penotobarbitone and challenged with glucose as described for the OGTT. Blood samples for insulin assay were collected from the orbital plexus from fasted mice or from mice 15 minutes after glucose challenge using 4×75 μl haematocrit tubes for each bleed. Serum samples were diluted 1 in 5 or 1 in 20 then assayed in duplicate for insulin content using a Linco sensitive rat insulin radioimmunoassay kit. […] Insulin content was determined by sensitive rat insulin RIA using a 1 in 1,000 dilution of the homogenates.

C57B1/6J mice = test: Size and number of pancreatic islets after vATPase inhibitors; type: in vivo
Protocol: The effect of vATPase inhibitors on the size and number of pancreatic islets was analysed in C57B1/6J using either bafilomycin A1 (BA1) or concanamycin A (CMA). The effect of Streptozotocin, an islet beta-cell specific toxin produced by Streptomyces achromogenes was also examined, to enable comparison with the effect of vATPase inhibitors.
Groups of 4 female C57B1/6J mice were injected with 5 doses on 5 consecutive days of 12 ng/g body weight BA1, CMA or the well characterised islet β-cell toxin streptozotocin. Pancreases were removed on day 84 and 3 formalin-fixed sections per mouse were immunostained for insulin. The area of insulin-positive islets was measured on digital images using MCID software.

F-ATPase = conditions: 275 nM; cited from earlier work
Balb/c mice [3] = test: Pancreatic immunoreactive insulin content by RIA on pancreas homogenates; type: in vivo; conditions: treated 14 days previously, 15 minutes after glucose challenge
Protocol: Groups of 9 mice were treated with bafilomycin A1 or carrier solution then fasted, anaesthetised with penotobarbitone and challenged with glucose as described for the OGTT. Blood samples for insulin assay were collected from the orbital plexus from fasted mice or from mice 15 minutes after glucose challenge using 4×75 μl haematocrit tubes for each bleed. Serum samples were diluted 1 in 5 or 1 in 20 then assayed in duplicate for insulin content using a Linco sensitive rat insulin radioimmunoassay kit. Pancreata from the mice that were bled 15 minutes after glucose challenge were dissected and frozen on dry ice. The frozen pancreata were homogenised in 2 ml of PBS containing 1 mg/ml BSA per gram of pancreas by 10 strokes in a dounce homogeniser. The slurry was sonicated using 3×10 second bursts and then centrifuged at 12,000×g for 60 minutes. The supernatants were stored at −20° C. Insulin content was determined by sensitive rat insulin RIA using a 1 in 1,000 dilution of the homogenates.
Pancreatic immunoreactive insulin content was determined directly by RIA on homogenates of pancreas. Mice treated 14 days previously were fasted and then challenged with glucose 15 minutes prior to removal of the pancreas. […]

## CO/C1=C\C(C)=C\[C@@H](C)[C@@H](O)[C@@H](C)C/C(C)=C/C=C/[C@H](OC)[C@@H]([C@@H](C)[C@@H](O)[C@H](C)[C@@]2(O)C[C@@H](O)[C@H](C)[C@@H](C(C)C)O2)OC1=O [bafilomycin A1]
Balb/c mice [1]; 1 day after administration
  net fluorescence emitted by islets (median): 57.9 arbitrary fluorescence units
Balb/c mice [1]; 7 days after administration
  net fluorescence emitted by islets (median): 59.9 arbitrary fluorescence units
Balb/c mice [2]
  plasma insulin level fifteen minutes after glucose challenge: 15±10
Balb/c mice [2]; fasting
  fasting plasma immunoreactive insulin level: 1.2±0.8
C57B1/6J mice; day 84, 5 daily doses of 12 ng/g body weight
  No. islets per mm^2 pancreas section: 0.85 per mm^2 pancreas section
C57B1/6J mice; i.p. 12 ng/gram body weight
  effect on islet number and size: increased the number of small islets
C57B1/6J mice; insulin-positive islets, day 84, 5 daily doses of 12 ng/g body weight
  Median size: 3830 μm^2
F-ATPase
  inhibition of F-ATPase activity: no detectable inhibition
Balb/c mice [3]
  more pancreatic immunoreactive insulin than controls: 70%
  pancreatic immunoreactive insulin content (median): 565 μg IRI per gram of pancreas
